Patent publication US8735345B2, “Therapeutic composition” (Hoffmann la Roche Inc., priority 2009, dated 2014)

Tests used:
HCV replication = details: cited from earlier work
genotype 1 HCV = assay: HCV RNA viral load determination (COBAS AmpliPrep/COBAS TaqMan HCV Test) in a randomized, double-blind, placebo controlled, dose ranging study; type: in vivo, human; details: monotherapy 750 mg, bid; after 7 days of treatment
Experimental: A randomized, double-blind, placebo controlled, dose ranging study of Compound 1a and Compound 2 in adult patients with chronic hepatitis C genotype 1 was conducted. Approximately 54 treatment naïve males and females between 18 and 65 years of age (inclusive) with genotype 1 HCV infection who had not previously been treated with an interferon or investigational HCV therapeutic agent were enrolled. Approximately an additional 20 treatment patients who had failed treatment with the current standard of care (null, partial responders and relapsers) were enrolled. […] Subjects with liver cirrhosis or incomplete/transition to cirrhosis, or other forms of liver disease, anemia, HIV or HBV infection, hepatocellular carcinoma, cardiac disease or renal disease were excluded from this particular protocol, as well as pregnant or lactating women, women of childbearing potential, and male partners of women who are pregnant or lactating.
Seven groups, Groups I, II, III, IV, V, VI and VII, of subjects were studied. Blood samples were collected at time points to determine pharmacokinetics parameters, including Tmax, Cmax, Kel, T1/2, AUC, CL/F, Vd/F and accumulation ratio.
The specifics of Groups I, II, III, IV, V, VI and VII are shown in Table 1 below and pictorially in FIGS. 2 and 3. Group I included two arms with 8 subjects in Arm 1 and 8 subjects in Arm 2. […]

Compound	inhibition of HCV replication (HCV replication)	mean log change from baseline in HCV RNA viral load (genotype 1 HCV)
C[C@@]1(F)[C@H](O)[C@@H](CO)O[C@H]1n1ccc(N)nc1=O [Compound 1, β-D-2′-deoxy-2′-fluoro-2′-C-methylcytidine]	effective in inhibiting HCV replication	
diisobutyl ester prodrug of β-D-2′-deoxy-2′-fluoro-2′-C-methylcytidine [Compound 1a]		−1.3 log IU/mL
CC(C)(C)OC(=O)N[C@H]1CCCCCC=C[C@@H]2C[C@@]2(C(=O)NS(=O)(=O)C2CC2)NC(=O)[C@@H]2C[C@@H](OC(=O)N3Cc4cccc(F)c4C3)CN2C1=O [Compound 2, (1S,4R,6S,14S,18R)-4-Fluoro-1,3-dihydro-isoindole-2-carboxylic acid 14-tert-butoxycarbonylamino-4-cyclopropanesulfonylaminocarbonyl-2,15-dioxo-3,16-diaza-tricyclo[14.3.0.04,6]nonadec-7-en-18-yl ester]	effective in inhibiting HCV replication	
